Test results from patent publication US4371535A, “Method of and composition for delivering 5-fluorouracil to tumors” (priority 1976, dated 1983).
Where two headings read alike, the source gives them in different places.

Experiments:
[1] = rat, in vivo; for Concentration of 5-fluorouracil in blood: po
Description: (§3) Cells of the tumor, AH-130, 5×10^6 in number, are subcutaneously transplanted in the armpit region of test animals (3 in each group). […] The concentration of 5-fluorouracil in the blood and in the cancer cellular tissue of the animals are measured 1, 2, 4, 8 and 12 hours after the administration.

[2] = Conversion in the body into 5-fluorouracil; settings: in vivo
Description: as §3

[3] = system: AH-130; assay: Anti-tumor activity on AH-130, subcutaneous transplant; assay type: in vivo; settings: rats, oral once daily 7 days, 121.5 mg/kg (bis) or 90 mg/kg (mono); for Weight of tumor: 10th day, control 2.10 ± 0.50 g; for Inhibition percentage: tumor weight on 10th day
Description: (§1) As transplantable tumors, Ehrlich carcinoma and sarcoma 180 are used for mice and Yoshida sarcoma and AH 130 for rats. […] The effect of the compound is determined in terms of the weight of tumor on the 10th day from the transplantation.

[4] = system: Mice (ddy strain); assay: in vivo; assay type: in vivo; settings: for LD50: oral, mice
Description: (§2) Mice (ddy strain, male, 5 weeks old) are reared for one week, then fasted for 15 hours and thereafter orally given the compound forcibly. After the administration, the mice are placed into plastic cages, with free access to a solid diet and water, and checked for mortality 3 days, one week, 2 weeks and 3 weeks later. LD50 is calculated according to the method of Litchfield and Wilcoxon.

[5] = in vivo; assay type: in vivo; settings: mouse, in vivo, oral, mice
Description: as §2

[6] = Solubility; assay type: physicochemical
[7] = Toxicity and side effects, overall statement; settings: versus 1-(2-tetrahydrofuryl)-5-fluorouracil
[8] = system: Yoshida sarcoma; assay: Anti-tumor activity on Yoshida sarcoma, subcutaneous transplant; assay type: in vivo; settings: rats, oral once daily 7 days, 121.5 mg/kg (bis) or 90 mg/kg (mono); for Weight of tumor: 10th day, control 4.48 ± 0.60 g; for Inhibition percentage: tumor weight on 10th day
Description: as §1

[9] = system: cellular immunity; settings: mouse, in vivo
Description: A predetermined amount of 7 wt. % ethanol solution of picryl chloride is given to the shaved abdomens of mice for sensitization. […] On the seventh day after the sensitization, a 1 wt. % olive oil solution of picryl chloride is applied to the inside of both ears of each animal to give rise to a delayed cutireaction. The thickness of the ear resulting from the reaction in 24 hours is measured to calculate the percentage of inhibition on immunity.

[10] = system: tumor; assay: Anti-tumor activity, overall comparison with 1-(2-tetrahydrofuryl)-5-fluorouracil; assay type: in vivo; settings: versus 1-(2-tetrahydrofuryl)-5-fluorouracil
Description: as §1

[11] = rat, in vivo; for Concentration of 5-fluorouracil in cancer cellular tissue: po
Description: as §3

[12] = system: sarcoma 180; assay: Anti-tumor activity on sarcoma 180, subcutaneous transplant; assay type: in vivo; settings: mice, oral once daily 7 days, 121.5 mg/kg (bis) or 90 mg/kg (mono); for Weight of tumor: 10th day, control 1.00 ± 0.09 g; for Inhibition percentage: tumor weight on 10th day
Description: as §1

[13] = system: Ehrlich carcinoma; assay: Anti-tumor activity on Ehrlich carcinoma, subcutaneous transplant; assay type: in vivo; settings: mice, oral once daily 7 days; for Inhibition percentage: 121.5 mg/kg (bis) or 90 mg/kg (mono), tumor weight on 10th day; for Weight of tumor: 121.5 mg/kg (bis) or 90 mg/kg (mono, equimolar), 10th day, control 0.61 ± 0.08 g
Description: as §1

[14] = system: immunity; settings: versus 5-fluorouracil; Giller et al., British Pat. No. 1,168,391; cited from earlier work
[15] = cited from earlier work
[16] = system: transplanted tumors; settings: Heidelberger et al.; cited from earlier work

Row | SMILES | Concentration of 5-fluorouracil in blood ([1]; 60 min) | Concentration of 5-fluorouracil in blood ([1]; 120 min) | Concentration of 5-fluorouracil in blood ([1]; 240 min) | Concentration of 5-fluorouracil in blood ([1]; 480 min) | Concentration of 5-fluorouracil in blood ([1]; 720 min) | Weight of tumor [3] | Inhibition percentage [3] | Weight of tumor [8] | Inhibition percentage [8] | Concentration of 5-fluorouracil in cancer cellular tissue ([11]; 60 min) | Concentration of 5-fluorouracil in cancer cellular tissue ([11]; 120 min) | Concentration of 5-fluorouracil in cancer cellular tissue ([11]; 240 min) | Concentration of 5-fluorouracil in cancer cellular tissue ([11]; 480 min) | Concentration of 5-fluorouracil in cancer cellular tissue ([11]; 720 min) | Weight of tumor [12] | Inhibition percentage [12] | Inhibition percentage [13] | Weight of tumor [13] | other results
1 | O=c1c(F)cn(C2CCCO2)c(=O)n1C1CCCO1 (centres unmarked) [1,3-bis(2-tetrahydrofuryl)-5-fluorouracil] | 5880 ng/mL | 5080 ng/mL | 2650 ng/mL | 570 ng/mL | 200 ng/mL | 0.92 ± 0.35 g | 56% | 2.59 ± 0.33 g | 42% | 8930 ng/mL | 7530 ng/mL | 7530 ng/mL | 5400 ng/mL | 2130 ng/mL | 0.31 ± 0.10 g | 69% | 57% | 0.26 ± 0.06 g | Concentration of 5-fluorouracil in the blood relative to the conventional composition [1]: 10-20 times; Conversion in the body (prodrug) [2]: converted in the body into 5-fluorouracil; LD50 ([4]; 1 week, 10080 min): 2,780 mg/kg; LD50 ([4]; 2 weeks, 20160 min): 2,664 mg/kg; Acute toxicity relative to the conventional composition ([4]; versus composition containing 1-(2-tetrahydrofuryl)-5-fluorouracil): about one-third; LD50 at 504 h ([5]; 3 weeks): 2560 mg/kg; LD50 at 72 h ([5]; 3 days): 2980 mg/kg; Solubility ([6]; methanol, ethanol, acetone, ether, chloroform, glacial acetic acid, dimethyl sulfoxide): soluble; Solubility ([6]; water, aqueous caustic soda solution, ethyl acetate, hydrochloric acid): sparingly soluble; Side effects, in words [7]: less side effects; Toxicity, in words [7]: lower toxicity; Inhibitory effect on the cellular immunity relative to the conventional composition [9]: lower inhibitory effect on the cellular immunity; Anti-tumor activity, in words [10]: more excellent anti-tumor activity; Concentration of 5-fluorouracil in cancer cellular tissue relative to the conventional composition [11]: 10-20 times; Concentration of 5-fluorouracil maintained in cancer cellular tissue, in words [11]: much higher
2 | O=c1[nH]c(=O)n(C2CCCO2)cc1F (centres unmarked) [1-(2-tetrahydrofuryl)-5-fluorouracil, reference compound] | 200 ng/mL | 300 ng/mL | 200 ng/mL | 80 ng/mL | ≤ 40 ng/mL | 1.11 ± 0.17 g | 47% | 3.48 ± 0.68 g | 22% | ≤ 200 ng/mL | 350 ng/mL | 350 ng/mL | 340 ng/mL | ≤ 200 ng/mL | 0.36 ± 0.11 g | 64% | 39% | 0.37 ± 0.14 g | Inhibition on immunity, in words [14]: less inhibitory on immunity than 5-fluorouracil; Toxicity, in words ([15]; versus 5-fluorouracil, Giller et al., British Pat. No. 1,168,391): lower in toxicity
3 | O=c1[nH]cc(F)c(=O)[nH]1 [5-fluorouracil] |  |  |  |  |  |  |  |  |  |  |  |  |  |  |  |  |  |  | Toxicity, in words ([15]; background statement): highly toxic; Side effects, in words ([15]; in vivo): reduced immunity, gastro-intestinal ulceration, leucopenia and various other side effects; Anti-tumor activity, in words [16]: inhibit transplanted tumors
